Data published in patent US9597347B2, “Compositions for treating obesity and insulin resistance disorders” (President and Fellows of Harvard College, priority 2003, dated 2017).
“Also recorded” adds a separate entry of the source.

Assays:
[1] = system: PPAR-γ; experiment: Expression of the adipogenic transcription regulator PPAR-γ in 3T3 cells; assay type: cell-based; details: cells exposed to resveratrol during differentiation
Source text: AICAR stimulates AMPK signaling and inhibits adipogenesis in 3T3 cells. To distinguish whether the effect of resveratrol was to inhibit differentiation or mobilize fat from 3T3 cells, we examined whether resveratrol inhibited the expression of adipogenic transcription regulators such as PPAR-γ.

[2] = system: Wild-type N2 C. elegans worms; experiment: Nile Red staining of fat accumulation in wild-type N2 C. elegans; assay type: in vivo; details: 100 μM, L1 animals, 48 hours, control 2.5% v/v DMSO
[3] = system: 3T3-L1 cells; experiment: Adipocyte differentiation and fat content by Oil Red O staining, 3T3-L1 cells; assay type: cell-based
Procedure: To obtain evidence that resveratrol affects fat metabolism in a physiologically relevant cell, we examined the effect of increasing concentrations of resveratrol on 3T3-L1 and NIH3T3 cell differentiation and fat content. 3T3-L1 or NIH3T3 cells were grown to confluence and allowed to pack in for 2 days at which point differentiation was initiated by addition of isobutylmethylxanthine, dexamethasone and insulin in the presence of vehicle (ethanol alone) or resveratrol at concentrations of 0, 12.5 and 25 μM. After 10 days of differentiation, fat content was assessed by Oil Red O staining, as described below. The results, which are shown in FIG. 12, indicate that concentrations of 25 μM or higher resveratrol decreased the quantity of cellular fat in 3T3-L1 and NIH3T3 cells. The results in NIH3T3 cells confirm the results obtained in C. elegans.
We then infected 3T3 preadipoctyes/adipocytes with pMX alone or pMX encoding PPAR-γ and examined the effect of resveratrol on 3T3 cell differentiation. 3T3-L1 and NIH3T3 cells were infected with a plasmid expressing GFP or PPAR-γ and grown to confluence. […]
3T3-L1 and NIH3T3 cells were maintained in DMEM plus 10% calf serum. […] The staining of adipocytes with Oil Red-O and quantitation was performed as described previously (Ramirez-Zacarias J L, Castro-Munozledo F, Kuri-Harcuch W. Histochemistry. 1992 July; 97(6):493-7). […]

[4] = system: C. elegans worms; experiment: Nile Red fat staining in C. elegans fed RNAi bacteria; assay type: in vivo
Procedure: The role of Sir2.1 in fat metabolism was shown in C. elegans worms in which Sir2.1 was RNA inactivated. Young adult worms were grown to adulthood in the presence of bacteria that carry RNAi vector alone or vector encoding Sir2.1 RNAi (R11A8.4), as described below. These worms were grown in the presence or absence of resveratrol, and stained with Nile-Red as described below.
We have examined the C. elegans database and found two gene products that are highly related to mammalian AMPK, TOC1.8 and Par2.3; five genes encoding homologs of CPT-1 and one gene encoding a homolog of COT. C. elegans worms were incubated with bacteria carrying RNAi vector alone, or interfering RNA against TOC1.8 or F41E7.3, a C. elegans homologue of COT in the presence or absence of AICAR. Fat accumulation was visualized with Nile-Red, as described below. […] Thus, AICAR/AMPK signaling to fatty acid oxidation is conserved in worms and mammalian cells.
The effect of TOC1.8 and COT inactivation was then investigated in C. elegans incubated with resveratrol. C. elegans worms were incubated with bacteria carrying RNAi vector alone, or a vector encoding TOC1.8 or COT interfering RNA in the presence or absence of resveratrol. Fat accumulation was visualized with Nile-Red, as described below.
RNAi plates were seeded with HTT5 E. coli carrying either the L4440 RNAi vector control or the specific RNAi clones T01C8.1, AMPK; R11A8.4, sir-2.1; or F41E7.6 COT in the presence or absence of 100 μM resveratrol. Young adults were transferred to plates containing the appropriate vector, Nile Red stain and drug then maintained at 25° C. Nile Red staining was assessed 24 hours after resveratrol treatment by UV microscopy.
HT115 E. Coli carrying the RNAi vector, L4440, were used for maintenance feeding. Bacteria containing experimental RNAi clones were cultured in 10 ml Luria Broth media containing 50 μg/ml ampicillin for 18 hours. 350 μl of each culture was spotted to a 60 mm dish containing NGM agar, 6 mM IPTG and 25 μg/ml carbenicillin. After overnight incubation (at room temp), Nile Red was added on top of each dish to a final concentration of 0.05 μg/ml along with the experimental compounds indicated in the figure legends. Nile Red staining was assessed after 24 hrs by UV microscopy. For each batch of RNAi clones tested, L4440 (vector alone) was included. […] All phenotypes were confirmed by at least three additional rounds of testing.

[5] = system: phosphorylation of ACC; experiment: Western blot of ACC phosphorylation in 3T3-L1 adipocytes; assay type: cell-based; details: harvested 6 or 10 days after induction of differentiation
Procedure: Phosphorylation of ACC, which reflects AMPK activity, was also observed in 3T3-L1 adipocytes treated with either ethanol or resveratrol. 3T3-L1 cells were incubated with either ethanol or resveratrol and then harvested either 6 or 10 days after they were induced to differentiate into adipocytes from the parent 3T3 fibroblast cell line. […] ACC was also phosphorylated when the cells were incubated in serum free media overnight before harvesting (lanes marked “SF”). The reason for the extra band in the SIRT1 blot at day 6 is unknown, but we hypothesize that it may be a modified form of SIRT1. Tubulin served as a loading control.

Oc1ccc(/C=C/c2cc(O)cc(O)c2)cc1 [resveratrol, 3,5,4′-Trihydroxy-trans-stilbene]
PPAR-γ RNA / expression [1]: did not show an increase in PPAR-γ RNA; also recorded: marked decrease in PPARγ expression
fat staining [2]: Significant reduction of fat staining
concentrations that decreased the quantity of cellular fat ([3]; 10 days of differentiation, 0, 12.5 and 25 μM tested, Oil Red O): ≥ 25 µM
inhibition of 3T3 preadipocyte differentiation ([3]; cells overexpressing PPAR-γ, 0, 25 or 50 μM, eight days of differentiation): partially negated inhibition of 3T3 preadipocyte differentiation by resveratrol
fat mobilization ([4]; RNA inactivation of DAF-16, or inactivation of DAF-16 by mutation): had no effect on resveratrol-stimulated fat mobilization
fat mobilization ([4]; RNA inactivation of TOC1.8 (AMPK homolog) or F41E7.3 (COT homolog)): blocks resveratrol-stimulated fat mobilization
reduction of fat content ([4]; RNAi vector alone, 100 μM resveratrol, Nile Red assessed after 24 hours): 75%
fat mobilization ([4]; Sir2.1 RNAi (R11A8.4)): did not show resveratrol induced fat mobilization
phosphorylation of ACC [5]: stimulated the phosphorylation of ACC at both day 6 and day 10
